This passage reports MIC results from DBAASP.

Assay in all cases: ≥ marks a high value that may be exact or a test limit, other limits are often not marked, values filed in µg/mL are converted to µM
Experiment [1] relates to Candida albicans NCYC 1467.
Experiment [2] concerns Escherichia coli NCTC 10418.
Experiment [3] deals with Staphylococcus aureus ATCC 43300.
Experiment [4] has as its system Staphylococcus aureus NCTC 10788.
Experiment [5] concerns Staphylococcus aureus NCTC 12493.
Experiment [6] has as its system Pseudomonas aeruginosa ATCC 27853.
Experiment [7] has as its system Staphylococcus aureus ATCC BAA-1556.
Experiment [8] deals with Escherichia coli JW0013.
In experiment [9] the test system is Staphylococcus epidermidis ATCC 12228.
Experiment [10] relates to Staphylococcus aureus ATCC 25923.
Experiment [11] relates to Bacillus subtilis CMCC 63501.
Experiment [12] relates to Salmonella enterica subsp. enterica serovar Pullorum C79-13.
In experiment [13] the test system is Escherichia coli UB1005.
In experiment [14] the test system is Salmonella enterica subsp. enterica serovar Typhimurium ATCC 14028.

SMILES strings stand for the structures. ≈ marks a conversion by molar mass, not a printed value.

The MIC is the lowest concentration that inhibits growth of the organism. Higher therefore signals weaker potency. Regarding `CSCC[C@H](NC(=O)[C@H](CC(=O)O)NC(=O)[C@@H](NC(=O)[C@@H](NC(=O)[C@H](C)NC(=O)[C@H](CC(N)=O)NC(=O)[C@H](CC(C)C)NC(=O)[C@H](C)NC(=O)[C@H](C)NC(=O)[C@H](CCCCN)NC(=O)CNC(=O)[C@H](C)NC(=O)[C@H](C)NC(=O)[C@H](CCCCN)NC(=O)CNC(=O)[C@@H](NC(=O)[C@H](CC(N)=O)NC(=O)[C@H](CCCCN)NC(=O)[C@H](Cc1ccccc1)NC(=O)[C@H](CC(C)C)NC(=O)[C@H](CO)NC(=O)[C@H](CCCCN)NC(=O)[C@H](Cc1c[nH]c2ccccc12)NC(=O)[C@H](CC(C)C)NC(=O)CN)C(C)C)C(C)C)[C@@H](C)O)C(=O)N[C@H](C(=O)N[C@@H](CC(N)=O)C(=O)N[C@@H](CCC(N)=O)C(N)=O)C(C)C` [GLWKSLFKNVGKAAGKAALNAVTDMVNQ], the MIC was determined as 10.9 µM (≈ 32 µg/mL) in [1]; 5.46 µM (≈ 16 µg/mL) in experiment [2]; 10.9 µM (≈ 32 µg/mL) in experiment [3]; 5.46 µM (≈ 16 µg/mL) in experiment [4]; 21.8 µM (≈ 64 µg/mL) in experiment [5]; 21.8 µM (≈ 64 µg/mL) in experiment [6].
`CC(C)C[C@H](NC(=O)[C@H](CC(C)C)NC(=O)[C@H](CC(C)C)NC(=O)[C@H](CC(C)C)NC(=O)[C@H](CC(C)C)NC(=O)[C@H](CC(C)C)NC(=O)[C@H](CC(C)C)NC(=O)[C@@H](N)CCCCN)C(=O)N[C@@H](CCCCN)C(N)=O` [KLLLLLLLK] displayed an MIC in experiment [7] not below 100 µM.
`CC[C@H](C)[C@H](NC(=O)[C@H](CCCN=C(N)N)NC(=O)[C@@H](N)CCCCN)C(=O)N[C@@H](CCCN=C(N)N)C(=O)N1CCC[C@H]1C(=O)N[C@@H](CCCN=C(N)N)C(=O)N1CCC[C@H]1C(=O)N1CCC[C@H]1C(=O)N[C@@H](CCCN=C(N)N)C(=O)N[C@@H](CC(C)C)C(=O)N1CCC[C@H]1C(=O)N[C@@H](CCCN=C(N)N)C(=O)N1CCC[C@H]1C(=O)N[C@@H](CCCN=C(N)N)C(=O)N1CCC[C@H]1C(=O)N[C@@H](CCCN=C(N)N)C(=O)O` [KRIRPRPPRLPRPRPR] gave an MIC in experiment [8] of 0.3 µM (≈ 0.615 µg/mL).
As to `CC(C)C[C@H](NC(=O)[C@H](CC(C)C)NC(=O)[C@H](CC(C)C)NC(=O)[C@H](CCCCN)NC(=O)[C@H](CC(C)C)NC(=O)[C@H](CC(C)C)NC(=O)[C@H](CC(C)C)NC(=O)[C@H](CCCCN)NC(=O)[C@@H](N)CC(C)C)C(N)=O` [LKLLLKLLL], the MIC in experiment [7] is not below 100 µM.
The same measure, in the same setting: with `CC(C)C[C@H](NC(=O)[C@H](CCCCN)NC(=O)[C@H](CC(C)C)NC(=O)[C@H](CC(C)C)NC(=O)[C@H](CC(C)C)NC(=O)[C@H](CC(C)C)NC(=O)[C@H](CC(C)C)NC(=O)[C@@H](N)CC(C)C)C(=O)N[C@@H](CCCCN)C(N)=O` [LLLLLLKLK] the figure was not below 100 µM; with `CC(C)C[C@H](NC(=O)[C@H](CC(C)C)NC(=O)[C@H](CCCCN)NC(=O)[C@H](CC(C)C)NC(=O)[C@H](CC(C)C)NC(=O)[C@@H](N)Cc1c[nH]c2ccccc12)C(N)=O` [WLLKLL], not below 100 µM.
Regarding `CC(=O)N[C@@H](Cc1c[nH]c2ccccc12)C(=O)N[C@@H](CCCN=C(N)N)C(=O)N[C@@H](CCCCN)C(=O)N[C@@H](CC(C)C)C(=O)N[C@@H](Cc1c[nH]c2ccccc12)C(=O)N[C@@H](CCCN=C(N)N)C(=O)NCC(=O)NCC(=O)N[C@@H](CC(C)C)C(=O)N[C@@H](CCCCN)C(=O)N[C@@H](CCCN=C(N)N)C(=O)N[C@@H](Cc1c[nH]c2ccccc12)C(=O)N[C@@H](CC(C)C)C(=O)N[C@@H](CCCCN)C(N)=O` [WRKLWRGGLKRWLK], the MIC in [9] came out at 16 µM (≈ 30.8 µg/mL); in experiment [3], 4 µM (≈ 7.7 µg/mL); in experiment [10], 8 µM (≈ 15.4 µg/mL); in experiment [11], 8 µM (≈ 15.4 µg/mL); in [12], 2 µM (≈ 3.85 µg/mL); in experiment [6] it was 8 µM (≈ 15.4 µg/mL). In addition, the minimum inhibitory concentration (MIC) in [13] amounted to 4 µM (≈ 7.7 µg/mL); in experiment [14] it was 8 µM (≈ 15.4 µg/mL).
In experiment [7], `CC(C)C[C@H](NC(=O)[C@H](Cc1c[nH]c2ccccc12)NC(=O)[C@H](Cc1c[nH]c2ccccc12)NC(=O)[C@H](CC(C)C)NC(=O)[C@H](CCCN=C(N)N)NC(=O)[C@H](Cc1c[nH]c2ccccc12)NC(=O)[C@H](CC(C)C)NC(=O)[C@H](Cc1c[nH]c2ccccc12)NC(=O)[C@@H](N)Cc1c[nH]c2ccccc12)C(N)=O` [WWLWRLWWL] yielded an MIC of 3.12 µM (≈ 4.51 µg/mL).
